Source: ChEMBL document CHEMBL1201862, “PubChem BioAssay data set” (2004)
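Tested at 5 concentrations; 48 h exposure; 96-well plates; endpoints linearly interpolated, else capped at highest concentration. GI50 marks 50% less growth.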 The source made the active and inactive calls. Rule as the data show it: active = GI50 up to about 1.1 µM and inactive = higher.

Columns and labels:
Assay in all cases: growth of human tumour cells (NCI), 48 h
[1] = test system: MDA-MB-231
[2] = test system: HCT-15
[3] = test system: CCRF-CEM
[4] = test system: UO-31
[5] = test system: NCI-H522
[6] = test system: SK-MEL-28
[7] = test system: SR
[8] = test system: SNB-19
[9] = test system: KM12
[10] = test system: HCC 2998
[11] = test system: 786-0
[12] = test system: HCT-116
[13] = test system: MCF7
[14] = test system: OVCAR-3
[15] = test system: UACC-62
[16] = test system: T47D
[17] = test system: BT-549
[18] = test system: UACC-257
[19] = test system: SF-539

| SMILES | GI50 [1] | GI50 [2] | GI50 [3] | GI50 [4] | GI50 [5] | GI50 [6] | GI50 [7] | GI50 [8] | GI50 [9] | GI50 [10] | GI50 [11] | GI50 [12] | GI50 [13] | GI50 [14] | GI50 [15] | GI50 [16] | GI50 [17] | GI50 [18] | GI50 [19] |
| --- | --- | --- | --- | --- | --- | --- | --- | --- | --- | --- | --- | --- | --- | --- | --- | --- | --- | --- | --- |
| O=C(Nc1c(C(F)(F)F)cc(-c2ccccc2)[nH]c1=O)N1CCOCC1 | > 100 µM (inactive) | > 100 µM | 46.3 µM (inactive) | > 100 µM (inactive) | 89.1 µM (inactive) | > 100 µM (inactive) | 54.3 µM (inactive) | > 100 µM (inactive) | > 100 µM (inactive) | > 100 µM (inactive) | > 100 µM (inactive) | > 100 µM (inactive) | > 100 µM (inactive) | 70.8 µM (inactive) | > 100 µM (inactive) | > 100 µM (inactive) | > 100 µM (inactive) | 78.3 µM (inactive) | – |
| CC1(C)C/N=C/C(C)(OCc2ccccc2)C(=O)NC(C)(C)C/N=C/C(C)(OCc2ccccc2)C(=O)N1 (stereo not given) | > 10 µM (inactive) | > 10 µM | > 10 µM (inactive) | > 10 µM (inactive) | – | > 10 µM (inactive) | > 10 µM (inactive) | > 10 µM (inactive) | > 10 µM (inactive) | > 10 µM (inactive) | > 10 µM (inactive) | > 10 µM (inactive) | > 10 µM (inactive) | > 10 µM (inactive) | > 10 µM (inactive) | > 10 µM (inactive) | > 10 µM (inactive) | > 10 µM (inactive) | > 10 µM (inactive) |
| CN(C)c1ccc(/C=C2\C[C@H]3[C@@H]4CCc5cc(OCCN6CCCC6)ccc5[C@H]4CC[C@]3(C)C2=O)cc1 | 1.53 µM (inactive) | 1.26 µM | 1.13 µM (inactive) | 1.54 µM (inactive) | – | 1.53 µM (inactive) | 0.333 µM (active) | 1.89 µM (inactive) | 1.74 µM (inactive) | 1.53 µM (inactive) | 1.32 µM (inactive) | 1.21 µM (inactive) | 1.52 µM (inactive) | – | 1.9 µM (inactive) | 1.77 µM (inactive) | 3.39 µM (inactive) | 2.21 µM (inactive) | 1.59 µM (inactive) |
| Nc1cc(OCc2ccccc2)c(OCc2ccccc2)cc1C=O | 44.2 µM (inactive) | 19.8 µM | 22.3 µM (inactive) | – | 0.141 µM (active) | 42.1 µM (inactive) | 26.6 µM (inactive) | 32.9 µM (inactive) | 23.3 µM (inactive) | 8.57 µM (inactive) | 17.5 µM (inactive) | 21.2 µM (inactive) | 36.7 µM (inactive) | – | – | 21.1 µM (inactive) | 14.5 µM (inactive) | 85.9 µM (inactive) | 5.83 µM (inactive) |
| COc1ccc2c(c1)/C(=C\c1c(C)nc3n1CCS3)C(=O)N2 | 30.5 µM (inactive) | 9.4 µM | 24.7 µM (inactive) | 34.3 µM (inactive) | – | 46.8 µM (inactive) | 9.14 µM (inactive) | 33.8 µM (inactive) | 6.34 µM (inactive) | 19.2 µM (inactive) | 35.2 µM (inactive) | 19.2 µM (inactive) | 27.6 µM (inactive) | 21.7 µM (inactive) | 22.7 µM (inactive) | 27.7 µM (inactive) | 21.1 µM (inactive) | 47.6 µM (inactive) | 18.3 µM (inactive) |
| CCCCCCCCCCCCCC(=O)OCC(CCS(=O)(=O)O[C@H]1CC[C@@]2(C)C(=CC[C@@H]3C2CC[C@]2(C)C(=O)CCC32)C1)OC(=O)CCCCCCCCCCCCC (stereo not given in full) | > 100 µM (inactive) | > 100 µM | > 100 µM (inactive) | > 100 µM (inactive) | – | > 100 µM (inactive) | > 100 µM (inactive) | > 100 µM (inactive) | > 100 µM (inactive) | > 100 µM (inactive) | > 100 µM (inactive) | > 100 µM (inactive) | > 100 µM (inactive) | > 100 µM (inactive) | > 100 µM (inactive) | > 100 µM (inactive) | > 100 µM (inactive) | > 100 µM (inactive) | > 100 µM (inactive) |
